The text below walks through data of patent US7144731B2, “SCF antibody compositions and methods of using the same” (Amgen Inc., priority 1989, dated 2006).

One assay has as its system mouse bone marrow cells. In words: Pre-B cell colony formation in agar cultures. It is filed as cell-based. An excerpt:
The ability of recombinant rat SCF^1-164 (rrSCF^1-164), to act synergistically with IL-7 to enhance lymphoid cell proliferation was studied in agar cultures of mouse bone marrow. In this assay, the colonies formed with rrSCF^1-164 alone contained monocytes, neutrophils, and blast-cells, while the colonies stimulated by IL-7 alone or in combination with rrSCF^1-164 contained primarily pre-B cells. Pre-B cells, characterized as B220^+, sIg^−, cμ^+, were identified by FACS analysis of pooled cells using fluorescence-labeled antibodies to the B220 antigen [Coffman, Immunol. Rev., 69, 5 (1982)] and to surface Ig (FITC-goat anti-K, Southern Biotechnology Assoc., Birmingham, Ala.); and by analysis of cytospin slides for cytoplasmic μ expression using fluorescence-labeled antibodies (TRITC-goat anti-μ, Southern Biotechnology Assoc.,). Recombinant human IL-7 (rhIL-7) was obtained from Biosource International (Westlake Village, Calif.). When rrSCF^1-164 was added in combination with the pre-B cell growth factor IL-7, a synergistic increase in colony formation was observed (Table 16), indicating a stimulatory role of rrSCF^1-164 on early B cell progenitors.

For the next assay, the system named is UT-7 cells. The assay can be described thus: UT-7 ^3H-thymidine uptake assay. Format: cell-based, human. Here is the method: UT-7 cells are a human megakaryocyte, huGM-CSF responsive cell line obtained from John Adamson, New York Blood Center, New York, N.Y. UT-7 cells were cultured in Iscove's Modified Dulbecco's Medium, 10% FBS, 1× glutamine, 5 \g/ml huGM-CSF. Cells are passaged twice a week at 1×10^5 cells/ml.
Cells were washed twice in phosphate buffered saline (PBS) and resuspended in RPMI medium with 4% FBS and glutamine penicillin streptomycin (GPS) (Irvine Scientific Cat No. 9316 used at 1% volume per volume) at 4×10^4 cells/ml before use. Human SCF along with specific samples were added to 4000 cells/well in 96 well plates and were cultured for 72 hrs. 0.5 uCi/well of ^3H-Thymidine was then added to each plate, plates were harvested and counted 4 hours later.

The subject of assay [1] is 5-FU treated mouse bone marrow cells. The assay can be described thus: HPP-CFC assay. Format: cell-based. To be noted: COS-1 supernatants, concentrations tested. An excerpt:
There are a variety of biological activities which can be attributed to the natural mammalian rat SCF as well as the recombinant rat SCF protein. One such activity is its effect on early hematopoietic cells. This activity can be measured in a High Proliferative Potential Colony Forming Cell (HPP-CFC) assay [Zsebo, et al., supra (1988)]. To investigate the effects of factors on early hematopoietic cells, the HPP-CFC assay system utilizes mouse bone marrow derived from animals 2 days after 5-fluorouracil (5-FU) treatment. […] The rat SCF is plated in the presence of CSF-1 or IL-6 in semi-solid agar cultures. The agar cultures contain McCoys complete medium (GIBCO), 20% fetal bovine serum, 0.3% agar, and 2×10^5 bone marrow cells/ml. The McCoys complete medium contains the following components: 1× McCoys medium supplemented with 0.1 mM pyruvate, 0.24× essential amino acids, 0.24× non-essential amino acids, 0.027% sodium bicarbonate, 0.24× vitamins, 0.72 mM glutamine, 25 μg/ml L-serine, and 12 μg/ml L-asparagine. The bone marrow cells are obtained from Balb/c mice injected i.v. with 150 mg/kg 5-FU. The femurs are harvested 2 days post 5-FU treatment of the mice and bone marrow is flushed out. The red blood cells are lysed with red blood cell lysing reagent (Becton Dickenson) prior to plating. Test substances are plated with the above mixture in 30 mm dishes. Fourteen days later the colonies (>1 mm in diameter) which contain thousands of cells are scored. This assay was used throughout the purification of natural mammalian cell-derived rat SCF.

Assay [2] has as its system murine mast cell line, MC/9. The assay can be described thus: MC/9 ^3H-thymidine uptake assay. To be noted: COS-1 supernatants, concentrations tested. It is filed as cell-based. On the procedure: Another useful biological activity of both naturally-derived and recombinant rat SCF is the ability to cause the proliferation of the […] murine mast cell line, MC/9 (ATCC CRL 8306). MC/9 cells are cultured with a source of […] according to the ATCC CRL 8306 protocol. The medium used in the bioassay is RPMI 1640, 4% fetal bovine serum, 5×10^−5M 2-mercaptoethanol, and 1× glutamine-pen-strep. The MC/9 cells proliferate in response to SCF without the requirement for other growth factors. This proliferation is measured by first culturing the cells for 24 h without growth factors, plating 5000 cells in each well of 96 well plates with test sample for 48 h, pulsing for 4 h with 0.5 uCi ^3H-thymidine (specific activity 20 Ci/mmol), harvesting the solution onto glass fiber filters, and then measuring specifically-bound radioactivity. This assay was used in the purification of mammalian cell derived rat SCF after the ACA 54 gel filtration step, section C2 of this Example. Typically, SCF caused a 4–10 fold increase in CPM over background.

A further assay deals with KG-1. In words: KG-1 soft agar cloning assay. It is filed as cell-based, human. The conditions noted are these: COS-1 supernatant. On the procedure:
Another activity of recombinant human SCF is the ability to cause proliferation in soft agar of the human acute myelogenous leukemia (AML) cell line, KG-1 (ATCC CCL 246). COS-1 supernatants from transfected cells were tested in a KG-1 agar cloning assay [Koeffler et al., Science, 200, 1153–1154 (1978)] essentially as described except cells were plated at 3000/ml.

Another assay deals with human bone marrow. In words: Human bone marrow colony assay. Format: cell-based. The conditions noted are these: for Colony #/100,000 cells ± SD: COS-1 CM, 20 U/ml EPO, 14 days, colonies ≥0.2 mm. Here is the method:
The cDNA of human SCF corresponding to amino acids 1–162 obtained by PCR reactions outlined in Example 3D, was expressed in COS-1 cells as described for the rat SCF in Example 4. COS-1 supernatants were assayed on human bone marrow as well as in the murine HPP-CFC and MC/9 assays. […] The culture conditions of the assay were as follows: human bone marrow from healthy volunteers was centrifuged over Ficoll-Hypaque gradients (Pharmacia) and cultured in 2.1% methyl cellulose, 30% fetal calf serum, 6×10^−5 M 2-mercaptoethanol, 2 mM glutamine, ISCOVE'S medium (GIBCO), 20 U/ml EPO, and 1×10^5 cells/ml for 14 days in a humidified atmosphere containing 7% O2, 10% CO2, and 83% N2. Only those colonies of 0.2 mm in size or larger are indicated.
Recombinant human SCF was tested in agar colony assays on human bone marrow in combination with other growth factors as described above.

A further assay relates to normal human bone marrow. The assay can be described thus: Human CFU-GM assay. It is filed as cell-based. To be noted: average of triplicate cultures; SCF = COS-1 supernatant 4 days after transfection.

As to “rhIL-7: Recombinant human IL-7 from Biosource International”, the “Colony Number per 5 × 10^4 mouse bone marrow cells plated” value in the assay on mouse bone marrow cells (25 ng) is 4 ± 2; in the assay on mouse bone marrow cells (50 ng) it was 13 ± 6; in the assay with mouse bone marrow cells (100 ng), 18 ± 6; in the assay with mouse bone marrow cells (200 ng, mean of triplicate dishes ± SD), 21 ± 6.

As to “SCF^1-248: full length recombinant human stem cell factor formed in E. coli”, the “activity in the UT-7 assay” value is “no activity” in the assay with UT-7 cells (final material after cation exchange chromatography) and “active” in the assay on UT-7 cells (material following anion exchange chromatography).

With “V19.8 human SCF^1-162: recombinant human SCF amino acids 1–162, COS-1 supernatant”, the “activity in murine HPP-CFC assay” value in assay [1] is recorded as “not active”. Further, the “activity in murine MC/9 assay” value in assay [2] is listed as “not active”. Besides, the “Colony #/3000 Cells ± SD” value in the assay on KG-1 (1.5 μl assayed) is on record as 6 ± 6; in the assay with KG-1 (3 μl assayed) it was 6 ± 4; in the assay with KG-1 (6 μl assayed), 9 ± 5; with KG-1 (12 μl assayed), 8 ± 0; with KG-1 (25 μl assayed, triplicate) it was 14 ± 0. The “Colony #/100,000 cells ± SD” value was found to be 22 ± 3 in the assay with human bone marrow (50 μl assayed) and 33 ± 7 in the assay with human bone marrow (100 μl assayed). For the same molecule, the “activity on human bone marrow” value in the assay with human bone marrow (COS-1 supernatants) is listed as “active on human bone marrow”.

For the molecule “hSCF: Recombinant human SCF tested in agar colony assays; form not stated at Table 13”, the “Colony #/10^5 cells (14 Days)” value in the assay on human bone marrow (agar colony assay, factors alone or combined) is 0.

B1: CSF-1: human macrophage colony-stimulating factor (protein, UniProt P09603 33-554, looked up)
Macrophage colony-stimulating …: EEVSEYCSHMIGSGHLQSLQRLIDSQMETSCQITFEFVDQEQLKDPVCYLKKAFLLVQDIMEDTMRFRDNTPNAIAIVQLQELSLRLKSCFTKDYEEHDKACVRTFYETPLQLLEKVKNVFNETKNLLDKDWNIFSKNCNNSFAECSSQDVVTKPDCNCLYPKAIPSSDPASVSPHQPLAPSMAPVAGLTWEDSEGTEGSSLLPGEQPLHTVDPGSAKQRPPRSTCQSFEPPETPVVKDSTIGGSPQPRPSVGAFNPGMEDILDSAMGTNWVPEEASGEASEIPVPQGTELSPSRPGGGSMQTEPARPSNFLSASSPLPASAKGQQPADVTGTALPRVGPVRPTGQDWNHTPQKTDHPSALLRDPPEPGSPRISSLRPQGLSNPSTLSAQPQLSRSHSSGSVLPLGELEGRRSTRDRRSPAEPEGGPASEGAARPLPRFNSVPLTDTGHERQSEGSFSPQLQESVFHLLVPSVILVLLAVGGLLFYRWRRRSHQEPQRADSPLEQPEGSPLTQDDRQVELPV
As for B1, the “Colony #/100,000 cells (±SEM)” value in the assay with normal human bone marrow was determined as 0.
